From patent US11890288B2, “Sulfonamide or sulfinamide compound having effect of inducing BRD4 protein degradation and pharmaceutical use thereof” (MITSUBISHI TANABE PHARMA CORPORATION, priority 2020, dated 2024) come the findings set out here.

Molecules are shown by their SMILES.

The test system of assay [1] is human prostate cancer LNCaP cells. The assay can be described thus: Cytotoxic action on LNCaP cells (WST-8, 96 hr). It is filed as cell-based. To be noted: 96 hr culture. A digest of the protocol:
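Overnight pre-culture (10% FBS/RPMI1640, 37° C, 5% CO2) → compound from DMSO stock diluted in medium → 96 hr → WST-8 viable count. IC50 = conc. at 50% survival vs untreated, linear interpolation. (+)-JQ1 as positive control.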
Background: Tetrazolium dyes change colour on reduction, which living cells bring about.

In assay [2] the target is BRD4 protein (Homo sapiens (Human), UniProt O60885). The assay can be described thus: BRD4 protein degradation inducing action in LNCaP cells (immunofluorescence, 6 hr). It is filed as cell-based. To be noted: anti-BRD4 fluorescence intensity. A digest of the protocol:
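LNCaP cells in 10% FBS/RPMI1640 exposed to compound for 6 hr, fixed, permeabilized and immunostained for BRD4 with Alexa Fluor 546 secondary; fluorescence (ex 560, em 572 nm) read by imaging. DC50 = concentration giving 50% of untreated signal, interpolated linearly between the two bracketing points.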

In general, IC50 refers to the concentration needed to halve the response being measured. A high value points to a need for much substance. A word on the DC50: it is the concentration at which degradation of the target reaches its halfway point. Read a low DC50 as degradation at low concentration. `Cc1sc2c(c1C)C(c1ccc(-c3ccc(C(=O)N[C@H](C)c4ccc(S(=O)(=O)Nc5ccc(C)c6c(C#N)c[nH]c56)cc4)cc3)cc1)=N[C@@H](CC(=O)OC(C)(C)C)c1nnc(C)n1-2` [Example Compound 134, t-butyl [(6S)-4-(4′-{[(1R)-1-{4-[(3-cyano-4-methyl-1H-indol-7-yl)sulfamoyl]phenyl}ethyl]carbamoyl}[1,1′-biphenyl]-4-yl)-2,3,9-trimethyl-6H-thieno[3,2-f][1,2,4]triazolo[4,3-a][1,4]diazepin-6-yl]acetate] showed a 50% inhibitory concentration (IC50) in assay [1] of 0.55 nM. In addition, the DC50 in assay [2] was 0.31 nM.

In assay [1], `CCc1ccc(NS(=O)(=O)c2ccc(CCNC(=O)c3ccc(-c4ccc(C5=N[C@@H](CC(=O)OC)c6nnc(C)n6-c6sc(C)c(C)c65)cc4)cn3)cc2)c2[nH]cc(C#N)c12` [Example 110, methyl [(6S)-4-(4-{6-[(2-{4-[(3-cyano-4-ethyl-1H-indol-7-yl)sulfamoyl]phenyl}ethyl)carbamoyl]pyridin-3-yl}phenyl)-2,3,9-trimethyl-6H-thieno[3,2-f][1,2,4]triazolo[4,3-a][1,4]diazepin-6-yl]acetate] had an IC50 of 0.28 nM. Moreover, in assay [2], the DC50 is 0.063 nM.

In turn, `CCc1ccc(NS(=O)(=O)c2ccc(CCNC(=O)c3ccc(-c4ccc(C5=N[C@@H](CC(=O)OC)c6nnc(C)n6-c6sc(C)c(C)c65)cc4)c(F)c3F)cc2)c2[nH]cc(C#N)c12` [Example Compound 125, methyl [(6S)-4-{4′-[(2-{4-[(3-cyano-4-ethyl-1H-indol-7-yl)sulfamoyl]phenyl}ethyl)carbamoyl]-2′,3′-difluoro[1,1′-biphenyl]-4-yl}-2,3,9-trimethyl-6H-thieno[3,2-f][1,2,4]triazolo[4,3-a][1,4]diazepin-6-yl]acetate] yielded an IC50 in assay [1] of 0.37 nM. In assay [2], this compound had a DC50 of 0.17 nM.

In assay [1], `CCc1ccc(NS(=O)(=O)c2ccc(CCNC(=O)c3ccc(-c4ccc(C5=N[C@@H](CC(=O)OC(C)(C)C)c6nnc(C)n6-c6sc(C)c(C)c65)cc4)cc3)cc2)c2[nH]cc(C#N)c12` [Example Compound 137, t-butyl [(6S)-4-{4′-[(2-{4-[(3-cyano-4-ethyl-1H-indol-7-yl)sulfamoyl]phenyl}ethyl)carbamoyl][1,1′-biphenyl]-4-yl}-2,3,9-trimethyl-6H-thieno[3,2-f][1,2,4]triazolo[4,3-a][1,4]diazepin-6-yl]acetate] gave an IC50 of 0.48 nM. Moreover, it took 0.13 nM to reach half-maximal degradation in assay [2] (DC50).

With `COC(=O)C[C@@H]1N=C(c2ccc(-c3ccc(C(=O)NCc4ccc(S(=O)(=O)Nc5ccc(C)c6c(C#N)c[nH]c56)cc4)nn3)cc2)c2c(sc(C)c2C)-n2c(C)nnc21` [Example Compound 149, methyl [(6S)-4-(4-{6-[({4-[(3-cyano-4-methyl-1H-indol-7-yl)sulfamoyl]phenyl}methyl)carbamoyl]pyridazin-3-yl}phenyl)-2,3,9-trimethyl-6H-thieno[3,2-f][1,2,4]triazolo[4,3-a][1,4]diazepin-6-yl]acetate], the IC50 in assay [1] was 0.54 nM. For the same compound, the DC50 in assay [2] came to 0.18 nM.

Regarding `CCc1ccc(NS(=O)(=O)c2ccc(CNC(=O)c3cc(F)c(-c4ccc(C5=N[C@@H](CC(=O)OC)c6nnc(C)n6-c6sc(C)c(C)c65)cc4)cc3C)cc2)c2[nH]cc(C#N)c12` [Example Compound 120, methyl [(6S)-4-{4′-[({4-[(3-cyano-4-ethyl-1H-indol-7-yl)sulfamoyl]phenyl}methyl)carbamoyl]-2′-fluoro-5′-methyl[1,1′-biphenyl]-4-yl}-2,3,9-trimethyl-6H-thieno[3,2-f][1,2,4]triazolo[4,3-a][1,4]diazepin-6-yl]acetate], the midpoint of inhibition in assay [1], the IC50, lay at 0.41 nM. Besides, the DC50 in assay [2] is 0.26 nM.

Take `COC(=O)C[C@@H]1N=C(c2ccc(-c3ccc(C(=O)NCc4ccc(S(=O)(=O)Nc5ccc(C)c6c(C#N)c[nH]c56)cc4)c(OC)c3)cc2)c2c(sc(C)c2C)-n2c(C)nnc21` [Example 52, methyl [(6S)-4-{4′-[({4-[(3-cyano-4-methyl-1H-indol-7-yl)sulfamoyl]phenyl}methyl)carbamoyl]-3′-methoxy[1,1′-biphenyl]-4-yl}-2,3,9-trimethyl-6H-thieno[3,2-f][1,2,4]triazolo[4,3-a][1,4]diazepin-6-yl]acetate]: the IC50 in assay [1] came out at 0.55 nM. In assay [2], this compound came in with a DC50 of 0.3 nM.

In turn, `COC(=O)C[C@@H]1N=C(c2ccc(-c3ccc(C(=O)NCc4ccc(S(=O)(=O)Nc5ccc(C)c6c(C#N)c[nH]c56)cc4)cc3C)cc2)c2c(sc(C)c2C)-n2c(C)nnc21` [Example 75, methyl [(6S)-4-{4′-[({4-[(3-cyano-4-methyl-1H-indol-7-yl)sulfamoyl]phenyl}methyl)carbamoyl]-2′-methyl[1,1′-biphenyl]-4-yl}-2,3,9-trimethyl-6H-thieno[3,2-f][1,2,4]triazolo[4,3-a][1,4]diazepin-6-yl]acetate] had an IC50 in assay [1] of 0.47 nM. This compound also returned a DC50 in assay [2] of 0.32 nM.

Consider `COC(=O)C[C@@H]1N=C(c2ccc(-c3ccc(C(=O)NCCc4ccc(S(=O)(=O)Nc5ccc(C)c6c(C#N)c[nH]c56)cc4)nc3)cc2)c2c(sc(C)c2C)-n2c(C)nnc21` [Example 90, methyl [(6S)-4-(4-{6-[(2-{4-[(3-cyano-4-methyl-1H-indol-7-yl)sulfamoyl]phenyl}ethyl)carbamoyl]pyridin-3-yl}phenyl)-2,3,9-trimethyl-6H-thieno[3,2-f][1,2,4]triazolo[4,3-a][1,4]diazepin-6-yl]acetate], for which the IC50 in assay [1] is 0.19 nM. Besides, in assay [2], the DC50 turned out to be 0.091 nM.

Consider `CCc1ccc(NS(=O)(=O)c2ccc(CNC(=O)c3ccc(-c4ccc(C5=N[C@@H](CC(=O)OC)c6nnc(C)n6-c6sc(C)c(C)c65)cc4)c(F)c3F)cc2)c2[nH]cc(C#N)c12` [Example Compound 118, methyl [(6S)-4-{4′-[({4-[(3-cyano-4-ethyl-1H-indol-7-yl)sulfamoyl]phenyl}methyl)carbamoyl]-2′,3′-difluoro[1,1′-biphenyl]-4-yl}-2,3,9-trimethyl-6H-thieno[3,2-f][1,2,4]triazolo[4,3-a][1,4]diazepin-6-yl]acetate], for which the IC50 in assay [1] is 0.32 nM. For the same compound, it took 0.14 nM to reach half-maximal degradation in assay [2] (DC50).

In turn, `COC(=O)C[C@@H]1N=C(c2ccc(-c3ccc(C(=O)NCC#Cc4ccc(S(=O)(=O)Nc5ccc(C)c6c(C#N)c[nH]c56)cc4)cc3)cc2)c2c(sc(C)c2C)-n2c(C)nnc21` [Example 31, methyl [(6S)-4-{4′-[(3-{4-[(3-cyano-4-methyl-1H-indol-7-yl)sulfamoyl]phenyl}prop-2-yn-1-yl)carbamoyl][1,1′-biphenyl]-4-yl}-2,3,9-trimethyl-6H-thieno[3,2-f][1,2,4]triazolo[4,3-a][1,4]diazepin-6-yl]acetate] returned an IC50 in assay [1] of 4.2 nM. In assay [2], this compound gave a DC50 of 5.9 nM.

The compound `CCc1ccc(NS(=O)(=O)c2ccc(CNC(=O)c3ccc(-c4ccc(C5=N[C@@H](CC(=O)OC(C)(C)C)c6nnc(C)n6-c6sc(C)c(C)c65)cc4)cc3)cc2)c2[nH]cc(C#N)c12` [Example Compound 135, t-butyl [(6S)-4-{4′-[({4-[(3-cyano-4-ethyl-1H-indol-7-yl)sulfamoyl]phenyl}methyl)carbamoyl][1,1′-biphenyl]-4-yl}-2,3,9-trimethyl-6H-thieno[3,2-f][1,2,4]triazolo[4,3-a][1,4]diazepin-6-yl]acetate] gave an IC50 in assay [1] of 0.66 nM. Besides, the DC50 in assay [2] turned out to be 0.38 nM.
